Read-outs that look alike come from different tables or passages of the source.
Key:
[1] = Stability in liver microsome, monkey; assay type: in vitro ADME; conditions: liver microsomes; monkey liver microsome 0.1 mg/mL, compound 1 μM, NADPH 2 mM
Description: (§1) Then two parallel samples were prepared. After a 10 minutes preincubation at 37° C., 15 μL of NADPH solution (8 mM) was added according to the point-in-time. The final concentration of the text compound was 1 μM, the concentration of liver microsome was 0.1 mg/mL, the final concentration of NADPH was 2 mM. The incubations were last for 0, 15, 30, 60 min respectively, and then 150 μL of acetonitrile (include interior label) was added to the mixture system. After dilution with acetonitrile, the samples were centrifuged for 5 minutes in 4000 rpm. The supernatant liquid was collected for LC-MS/MS analysis.

[2] = PK of test compounds in beagle; assay type: in vivo, beagle dog; conditions: for Cmax / Tmax / clearance / half-life / AUC(0-inf) / AUC(0-t) / Vd: dog, plasma; for AUC(0-inf): AUC in 0 hour to infinite time; for Vd: read-out: Vss; for F: absolute bioavailability
Description: The test compounds were administrated to beagle dog by gavage in dose of 2.5 mg/kg or 5 mg/kg, or by intravenous injection in dose of 1 mg/kg or 2 mg/kg. Blood sample was collected at 0.083, 0.25, 0.5, 1, 2, 4, 6, 8 and 24 hours from vein after administration into anticoagulation tubes with EDTA-K2. The test compounds were extracted from plasma samples and chromatographed on a tandem mass spectrometer. Quantitation was performed using multiple reaction monitoring (MRM). Pharmacokinetic parameters were calculated using WinNonlin 6.3 software with non compartment model.

[3] = Stability in liver microsome, mouse; assay type: in vitro ADME; conditions: liver microsomes; mouse liver microsome 0.1 mg/mL, compound 1 μM, NADPH 2 mM
Description: as §1

HBV = experiment: In-vitro anti-HBV activity in stable HBV-producing cell line (HepG2.2.15), HBV DNA by qPCR; assay type: cell-based; conditions: Hepatitis B virus
Description: HBV DNA contents in cell culture fluid were detected by the qPCR-based assay and 50% effective concentration (EC50) values of the compounds against HBV were calculated. Specific procedures are as follows:
HepG2.2.15 cells were seeded into each well of 96-well plates, 40,000 cells per well. Cells were treated with cell culture medium containing compounds with different concentrations for 24 hours after cell seeding. The final concentration of each compound was 16.4 μM in each well and each compound was diluted to desired concentration using 3-fold gradient dilution protocol, 9 diluted points in duplicate. The culture mediums containing the compounds were refreshed on day 4 post cell seeding. Culture media were collected from the HepG2.2.15 plates on day 7 post cell seeding followed by HBV DNA extraction.
HBV DNA extraction: The HBV DNA extraction was performed using QIAamp 96 DNA Blood Kit (QIAGEN 51161).
PCR for quantification: PCR mix was prepared according to PCR system. PCR mix was dispensed to 96-well optical reaction plates (special for quantification). The standard diluted proportionally was added. Then the sample was added; The plates were sealed with optical adhesive film; PCR system was performed according to programs.
Percentage of HBV inhibition of DNA replication by compound was calculated using the following equation: % Inh.=[1-HBV DNA quantity of sample/HBV DNA quantity of DMSO control]×100.
Calculating EC50 value of compounds to HBV replication: the EC50 values were calculated based on “four-parameter logistic equation” and using GraphPad Prism 5 analysis software.

[4] = Stability in liver microsome, dog; assay type: in vitro ADME; conditions: liver microsomes; dog liver microsome 0.1 mg/mL, compound 1 μM, NADPH 2 mM
Description: as §1

[5] = Stability in liver microsome, human; assay type: in vitro ADME; conditions: liver microsomes; human liver microsome 0.1 mg/mL, compound 1 μM, NADPH 2 mM
Description: as §1

[6] = iv, 1 mg/kg, iv, 1 mg/kg, AUC in 0-24 hours, read-out: AUClast
[7] = 168 h, HepG2.2.15 cells, HBV DNA in culture fluid, day 7, top concentration 16.4 μM
[8] = po, 2.5 mg/kg, po, 2.5 mg/kg value multiplied by 2, read-out: AUClast ×2 (calculated by dosage)
[9] = po, 2.5 mg/kg, po, 2.5 mg/kg, AUC in 0-24 hours, read-out: AUClast
[10] = HepG2.2.15, isomers of compound of formular (II)

Row | Compound | CLint scaled at 1 μM [1] [mL/min/kg] | half-life at 1 μM [1] [min] | Cmax ([2]; iv, 1 mg/kg) [ng/mL] | Tmax ([2]; iv, 1 mg/kg) [min] | clearance ([2]; iv, 1 mg/kg) [mL/min/kg] | half-life ([2]; iv, 1 mg/kg) [min] | AUC(0-inf) ([2]; iv, 1 mg/kg) [ng·h/mL] | AUC(0-t) [2, 6] [ng·h/mL] | Vd ([2]; iv, 1 mg/kg) [L/kg] | CLint scaled at 1 μM [3] [mL/min/kg] | half-life at 1 μM [3] [min] | EC50 (HBV; [7]) [nM] | CLint scaled at 1 μM [4] [mL/min/kg] | half-life at 1 μM [4] [min] | CLint scaled at 1 μM [5] [mL/min/kg] | half-life at 1 μM [5] [min] | other results
1 | CCOC(=O)C1=C(CN2CCO[C@H](CCC(=O)O)C2)NC(c2nccs2)=N[C@H]1c1ccc(F)cc1Br [Example 2, 3-((R)-4-(((R)-6-(2-Bromo-4-fluorophenyl)-5-(ethoxycarbonyl)-2-(thiazol-2-yl)-3,6-dihydropyrimidin-4-yl)methyl)morpholin-2-yl)propanoic acid] | 107 | 18.9 | 2050 | 4.98 | 1.93 | 343 | 8700 | 8270 | 0.756 | 385 | 14.2 | 35 | 14.3 | 241 | 17.5 | 99.4 | Cmax ([2]; po, 5 mg/kg): 6330 ng/mL; Tmax ([2]; po, 5 mg/kg): 79.8 min; half-life ([2]; po, 5 mg/kg): 306 min; AUC(0-inf) ([2]; po, 5 mg/kg): 49600 ng·h/mL; AUC(0-t) ([2]; po, 5 mg/kg, po, 5 mg/kg, AUC in 0-24 hours, read-out: AUClast): 47900 ng·h/mL; F ([2]; po, 5 mg/kg): 114.1%
2 | CCOC(=O)C1=C(CN2CCO[C@H](CCC(=O)O)C2)NC(c2nccs2)=N[C@H]1c1ccc(F)cc1Cl [Example 9, 3-((R)-4-(((R)-6-(2-Chloro-4-fluorophenyl)-5-(ethoxycarbonyl)-2-(thiazol-2-yl)-3,6-dihydropyrimidin-4-yl)methyl)morpholin-2-yl)propanoic acid] | 75.6 | 26.8 | 2570 | 4.98 | 1.51 | 395 | 11300 | 10600 | 0.63 | 281 | 19.4 | 48 | 19.4 | 178 | 11.4 | 152 | Cmax ([2]; po, 2.5 mg/kg): 4360 ng/mL; Tmax ([2]; po, 2.5 mg/kg): 30 min; half-life ([2]; po, 2.5 mg/kg): 277 min; AUC(0-inf) ([2]; po, 2.5 mg/kg): 24800 ng·h/mL; AUC(0-t) [2, 8]: 48600 ng·h/mL; AUC(0-t) [2, 9]: 24300 ng·h/mL; F ([2]; po, 2.5 mg/kg): 87.91%; EC50 (HBV; [10]): 48 nM
3 | COC(=O)C1=C(CN2CCO[C@H](CCC(=O)O)C2)NC(c2nccs2)=N[C@H]1c1ccc(F)cc1Cl [Example 10, 3-((R)-4-(((R)-6-(2-Chloro-4-fluorophenyl)-5-(methoxycarbonyl)-2-(thiazol-2-yl)-3,6-dihydropyrimidin-4-yl)methyl)morpholin-2-yl)propanoic acid] | 15.4 | 132 | 2430 | 4.98 | 1.74 | 310 | 9710 | 9400 | 0.62 | 57.7 | 94.5 | 45 | 6.13 | 564 | 3.72 | 467 | Cmax ([2]; po, 2.5 mg/kg): 4560 ng/mL; Tmax ([2]; po, 2.5 mg/kg): 50 min; half-life ([2]; po, 2.5 mg/kg): 274 min; AUC(0-inf) ([2]; po, 2.5 mg/kg): 28000 ng·h/mL; AUC(0-t) [2, 8]: 54000 ng·h/mL; AUC(0-t) [2, 9]: 27400 ng·h/mL; F ([2]; po, 2.5 mg/kg): 115%
4 | COC(=O)C1=C(CN2CCO[C@H](CCC(=O)O)C2)NC(c2nccs2)=N[C@H]1c1ccc(F)cc1Br [Example 11, 3-((R)-4-(((R)-6-(2-Bromo-4-fluorophenyl)-5-(methoxycarbonyl)-2-(thiazol-2-yl)-3,6-dihydropyrimidin-4-yl)methyl)morpholin-2-yl)propanoic acid] | 14.4 | 140 | 3400 | 8.34 | 1.59 | 299 | 10900 | 10500 | 0.545 | 86.3 | 63.2 | 35 | 10.1 | 343 | 6.93 | 251 | Cmax ([2]; po, 2.5 mg/kg): 4310 ng/mL; Tmax ([2]; po, 2.5 mg/kg): 45 min; half-life ([2]; po, 2.5 mg/kg): 295 min; AUC(0-inf) ([2]; po, 2.5 mg/kg): 24400 ng·h/mL; AUC(0-t) [2, 8]: 47400 ng·h/mL; AUC(0-t) [2, 9]: 23700 ng·h/mL; F ([2]; po, 2.5 mg/kg): 89.66%
5 | CCOC(=O)C1=C(CN2CCO[C@@H](CCC(=O)O)C2)NC(c2nccs2)=N[C@@H]1c1ccc(Cl)cc1Cl [Example 44, 3-((S)-4-(((S)-6-(2,4-Dichlorophenyl)-5-(ethoxycarbonyl)-2-(thiazol-2-yl)-3,6-dihydropyrimidin-4-yl)methyl)morpholin-2-yl)propanoic acid] |  |  |  |  |  |  |  |  |  |  |  | > 14900 |  |  |  |  | 
6 | COC(=O)C1=C(CN2CCO[C@H](CCC(=O)O)C2)NC(c2nccs2)=N[C@@H]1c1ccc(Cl)cc1Cl [Example 45, 3-((R)-4-(((S)-6-(2,4-dichlorophenyl)-5-(methoxycarbonyl)-2-(thiazol-2-yl)-3,6-dihydropyrimidin-4-yl)methyl)morpholin-2-yl)propanoic acid] |  |  |  |  |  |  |  |  |  |  |  | > 11300 |  |  |  |  | 
7 | COC(=O)C1=C(CN2CCO[C@@H](CCC(=O)O)C2)NC(c2nccs2)=N[C@@H]1c1ccc(Cl)cc1Cl [Example 46, 3-((S)-4-(((S)-6-(2,4-Dichlorophenyl)-5-(methoxycarbonyl)-2-(thiazol-2-yl)-3,6-dihydropyrimidin-4-yl)methyl)morpholin-2-yl)propanoic acid] |  |  |  |  |  |  |  |  |  |  |  | > 14200 |  |  |  |  | 
8 | CCOC(=O)C1=C(CN2CCOC[C@H]2CCC(=O)O)NC(c2nccs2)=N[C@@H]1c1ccc(F)cc1Br [Example 47, 3-((R)-4-(((S)-6-(2-Bromo-4-fluorophenyl)-5-(ethoxycarbonyl)-2-(thiazol-2-yl)-3,6-dihydropyrimidin-4-yl)methyl)morpholin-3-yl)propanoic acid] |  |  |  |  |  |  |  |  |  |  |  | > 16400 |  |  |  |  | 
9 | CCOC(=O)C1=C(CN2CCOC[C@@H]2CCC(=O)O)NC(c2nccs2)=N[C@@H]1c1ccc(F)cc1Br [Example 48, 3-((S)-4-(((S)-6-(2-Bromo-4-fluorophenyl)-5-(ethoxycarbonyl)-2-(thiazol-2-yl)-3,6-dihydropyrimidin-4-yl)methyl)morpholin-3-yl)propanoic acid] |  |  |  |  |  |  |  |  |  |  |  | > 10300 |  |  |  |  | 
10 | COC(=O)C1=C(CN2CCOC[C@H]2CCC(=O)O)NC(c2nccs2)=N[C@@H]1c1ccc(F)cc1Br [Example 49, 3-((R)-4-(((S)-6-(2-Bromo-4-fluorophenyl)-5-(methoxycarbonyl)-2-(thiazol-2-yl)-3,6-dihydropyrimidin-4-yl)methyl)morpholin-3-yl)propanoic acid] |  |  |  |  |  |  |  |  |  |  |  | > 16400 |  |  |  |  | 
11 | COC(=O)C1=C(CN2CCOC[C@@H]2CCC(=O)O)NC(c2nccs2)=N[C@@H]1c1ccc(F)cc1Br [Example 50, 3-((S)-4-(((S)-6-(2-Bromo-4-fluorophenyl)-5-(methoxycarbonyl)-2-(thiazol-2-yl)-3,6-dihydropyrimidin-4-yl)methyl)morpholin-3-yl)propanoic acid] |  |  |  |  |  |  |  |  |  |  |  | > 10900 |  |  |  |  | 
12 | CCOC(=O)C1=C(CN2CCO[C@H](CCC(=O)O)C2)NC(c2nccs2)=N[C@@H]1c1ccc(F)cc1Cl [Example M3] |  |  |  |  |  |  |  |  |  |  |  |  |  |  |  |  | EC50 (HBV; [10]): > 16400 nM
13 | CCOC(=O)C1=C(CN2CCO[C@@H](CCC(=O)O)C2)NC(c2nccs2)=N[C@@H]1c1ccc(F)cc1Cl [Example M4] |  |  |  |  |  |  |  |  |  |  |  |  |  |  |  |  | EC50 (HBV; [10]): > 16400 nM

Reference: patent US9771358B2, “Dihydropyrimidine compounds and their application in pharmaceuticals” (SUNSHINE LAKE PHARMA CO., LTD., priority 2014, dated 2017)
